Reference: ChEMBL document CHEMBL1201862, “PubChem BioAssay data set” (2004)
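Results reflect a 48-hour exposure of cells in 96-well plates to compound at five concentrations. GI50 is the concentration that inhibits growth by half.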 Calls of active or inactive are those of the source. No stated cut-off is given here; in the data, active = GI50 up to about 1.1 µM and inactive = higher.

Tests used:
Experiment in all cases: NCI tumour cell line growth inhibition, 48 h
HCT-15 = tested on: HCT-15
UACC-62 = tested on: UACC-62
DMS-114 = tested on: DMS-114
SW-620 = tested on: SW-620
IGROV-1 = tested on: IGROV-1
LXFL 529 = tested on: LXFL 529
SNB-19 = tested on: SNB-19
NCI-H23 = tested on: NCI-H23
RXF 631 = tested on: RXF 631
UACC-257 = tested on: UACC-257
A549 = tested on: A549
SK-MEL-2 = tested on: SK-MEL-2
CAKI-1 = tested on: CAKI-1
SK-OV-3 = tested on: SK-OV-3
SK-MEL-5 = tested on: SK-MEL-5
DMS-273 = tested on: DMS-273
U-251 = tested on: U-251
SF-295 = tested on: SF-295
EKVX = tested on: EKVX
HOP-18 = tested on: HOP-18
CCRF-CEM = tested on: CCRF-CEM
Malme-3M = tested on: Malme-3M
786-0 = tested on: 786-0
MOLT-4 = tested on: MOLT-4
NCI-H460 = tested on: NCI-H460
K562 = tested on: K562
TK-10 = tested on: TK-10
OVCAR-4 = tested on: OVCAR-4
HOP-62 = tested on: HOP-62
OVCAR-5 = tested on: OVCAR-5
SR = tested on: SR
M14 = tested on: M14
ACHN = tested on: ACHN
NCI-H522 = tested on: NCI-H522
SK-MEL-28 = tested on: SK-MEL-28
HT-29 = tested on: HT-29
OVCAR-8 = tested on: OVCAR-8
A498 = tested on: A498
UO-31 = tested on: UO-31
HL-60 = tested on: HL-60
OVCAR-3 = tested on: OVCAR-3
RXF 393 = tested on: RXF 393
KM12 = tested on: KM12
HCC 2998 = tested on: HCC 2998
SN12C = tested on: SN12C
KM-20L2 = tested on: KM-20L2
LOX IMVI = tested on: LOX IMVI
HCT-116 = tested on: HCT-116
M19-MEL = tested on: M19-MEL
SNB-75 = tested on: SNB-75
SF-268 = tested on: SF-268
DLD-1 = tested on: DLD-1
NCI-H226 = tested on: NCI-H226
COLO 205 = tested on: COLO 205
RPMI-8226 = tested on: RPMI-8226
HOP-92 = tested on: HOP-92
SF-539 = tested on: SF-539

## N#CCCCCCOCCOCCOCCOCCOCCCCCC#N
HCT-15
  GI50: > 100 µM
UACC-62
  GI50: 68.7 µM (inactive)
DMS-114
  GI50: > 100 µM (inactive)
SW-620
  GI50: > 100 µM (inactive)
IGROV-1
  GI50: > 100 µM (inactive)
LXFL 529
  GI50: > 100 µM (inactive)
SNB-19
  GI50: > 100 µM (inactive)
NCI-H23
  GI50: > 100 µM (inactive)
RXF 631
  GI50: > 100 µM (inactive)
UACC-257
  GI50: 81.1 µM (inactive)
A549
  GI50: > 100 µM (inactive)
SK-MEL-2
  GI50: > 100 µM (inactive)
CAKI-1
  GI50: > 100 µM (inactive)
SK-OV-3
  GI50: > 100 µM (inactive)
SK-MEL-5
  GI50: > 100 µM (inactive)
DMS-273
  GI50: > 100 µM (inactive)
U-251
  GI50: > 100 µM (inactive)
SF-295
  GI50: > 100 µM (inactive)
EKVX
  GI50: > 100 µM (inactive)
HOP-18
  GI50: > 100 µM (inactive)
CCRF-CEM
  GI50: > 100 µM (inactive)
Malme-3M
  GI50: > 100 µM (inactive)
786-0
  GI50: > 100 µM (inactive)
MOLT-4
  GI50: > 100 µM (inactive)
NCI-H460
  GI50: > 100 µM (inactive)
K562
  GI50: 68.5 µM (inactive)
TK-10
  GI50: > 100 µM (inactive)
OVCAR-4
  GI50: > 100 µM (inactive)
HOP-62
  GI50: > 100 µM (inactive)
OVCAR-5
  GI50: > 100 µM (inactive)
SR
  GI50: > 100 µM (inactive)
M14
  GI50: > 100 µM (inactive)
ACHN
  GI50: > 100 µM (inactive)
NCI-H522
  GI50: > 100 µM (inactive)
SK-MEL-28
  GI50: > 100 µM (inactive)
HT-29
  GI50: > 100 µM (inactive)
OVCAR-8
  GI50: > 100 µM (inactive)
A498
  GI50: > 100 µM (inactive)
UO-31
  GI50: > 100 µM (inactive)
HL-60
  GI50: > 100 µM (inactive)
OVCAR-3
  GI50: 97.7 µM (inactive)
RXF 393
  GI50: > 100 µM (inactive)
KM12
  GI50: > 100 µM (inactive)
HCC 2998
  GI50: > 100 µM (inactive)
SN12C
  GI50: > 100 µM (inactive)
KM-20L2
  GI50: > 100 µM (inactive)
LOX IMVI
  GI50: > 100 µM (inactive)
HCT-116
  GI50: > 100 µM (inactive)
M19-MEL
  GI50: > 100 µM (inactive)
SNB-75
  GI50: > 100 µM (inactive)
SF-268
  GI50: > 100 µM (inactive)
DLD-1
  GI50: > 100 µM (inactive)
NCI-H226
  GI50: > 100 µM (inactive)
COLO 205
  GI50: > 100 µM (inactive)

## CC1=CC(O)(c2ccc(-c3ccccc3Cl)cc2)OC1=O (configuration not stated)
HCT-15
  GI50: > 100 µM
UACC-62
  GI50: > 100 µM (inactive)
DMS-114
  GI50: > 100 µM (inactive)
SW-620
  GI50: > 100 µM (inactive)
IGROV-1
  GI50: > 100 µM (inactive)
RPMI-8226
  GI50: > 100 µM (inactive)
LXFL 529
  GI50: > 100 µM (inactive)
SNB-19
  GI50: > 100 µM (inactive)
NCI-H23
  GI50: > 100 µM (inactive)
RXF 631
  GI50: > 100 µM (inactive)
HOP-92
  GI50: > 100 µM (inactive)
UACC-257
  GI50: > 100 µM (inactive)
A549
  GI50: > 100 µM (inactive)
SF-539
  GI50: > 100 µM (inactive)
SK-MEL-2
  GI50: > 100 µM (inactive)
CAKI-1
  GI50: > 100 µM (inactive)
SK-OV-3
  GI50: > 100 µM (inactive)
SK-MEL-5
  GI50: > 100 µM (inactive)
DMS-273
  GI50: > 100 µM (inactive)
U-251
  GI50: > 100 µM (inactive)
SF-295
  GI50: > 100 µM (inactive)
EKVX
  GI50: > 100 µM (inactive)
HOP-18
  GI50: > 100 µM (inactive)
CCRF-CEM
  GI50: > 100 µM (inactive)
Malme-3M
  GI50: > 100 µM (inactive)
786-0
  GI50: > 100 µM (inactive)
MOLT-4
  GI50: > 100 µM (inactive)
NCI-H460
  GI50: > 100 µM (inactive)
K562
  GI50: > 100 µM (inactive)
TK-10
  GI50: > 100 µM (inactive)
OVCAR-4
  GI50: > 100 µM (inactive)
HOP-62
  GI50: > 100 µM (inactive)
OVCAR-5
  GI50: > 100 µM (inactive)
M14
  GI50: > 100 µM (inactive)
ACHN
  GI50: > 100 µM (inactive)
NCI-H522
  GI50: > 100 µM (inactive)
SK-MEL-28
  GI50: > 100 µM (inactive)
HT-29
  GI50: > 100 µM (inactive)
OVCAR-8
  GI50: > 100 µM (inactive)
UO-31
  GI50: > 100 µM (inactive)
HL-60
  GI50: > 100 µM (inactive)
OVCAR-3
  GI50: > 100 µM (inactive)
RXF 393
  GI50: > 100 µM (inactive)
KM12
  GI50: > 100 µM (inactive)
HCC 2998
  GI50: > 100 µM (inactive)
SN12C
  GI50: > 100 µM (inactive)
KM-20L2
  GI50: > 100 µM (inactive)
LOX IMVI
  GI50: > 100 µM (inactive)
M19-MEL
  GI50: > 100 µM (inactive)
SNB-75
  GI50: 43.1 µM (inactive)
SF-268
  GI50: > 100 µM (inactive)
DLD-1
  GI50: > 100 µM (inactive)
COLO 205
  GI50: > 100 µM (inactive)
